Here are results for 17 molecules from patent US9561231B2 (AbbVie Inc., priority 2012, dated 2017).

Experiment [1] relates to LPS induced IL-6 production. Description: LPS (lipopolysaccharide) induced IL-6 production mouse assay. The conditions noted are these: 1 h before LPS 2.5 mg/kg i.p., serum IL-6 2 h after LPS, p<0.05.
The test system of experiment [2] is breast cancer cell line MX-1. The experiment can be described thus: MX-1 cell line proliferation assay (3-day). Format: cell-based. Conditions: Homo sapiens, MX1, MX-1 cells, Cell Titer Glo, read-out: Cellular proliferation: EC50. The gist of the method: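 MX-1 cells in RPMI/10% FBS, plated 5000/well overnight, then exposed to compound at final 3 to 0.0001 μM (3-fold series) for 3 days at 37° C. Cell Titer Glo luminescence normalized to DMSO-treated cells; EC50 from sigmoidal curve fit.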
(In ATP-based viability assays light output follows the ATP content of the culture.)

For experiment [3], the target named is T1, first (BD1: amino acids K57-E168) bromodomain of BRD4 (Homo sapiens, UniProt O60885).
T1 construct: His-tagged first (BD1: amino acids K57-E168)
The experiment can be described thus: TR-FRET bromodomain binding assay, BRD4 BD1. The conditions noted are these: Ki calculated from IC50, probe Kd and probe concentration, read-out: TR-FRET Binding Ki: BRD4 (BDI_K57-E168). The gist of the method: (§1)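 Values are Ki: IC50s from TR-FRET competition with an Alexa647-labeled BET-inhibitor probe were converted using probe Kd and probe concentration. Purified His-tagged bromodomain; pH 6.0 sodium phosphate buffer.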

Experiment [4] deals with T2, second (BD2: amino acids E352-E168) bromodomain of BRD4 (Homo sapiens, UniProt O60885).
T2 construct: protocol
The experiment can be described thus: TR-FRET bromodomain binding assay, BRD4 BD2. The conditions noted are these: Ki calculated from IC50, probe Kd and probe concentration, read-out: TR-FRET Binding Ki: BRD4 (BDII_E352-M457). The gist of the method: as §1

Experiment [5] relates to MX-1 human breast cancer xenograft. Description: Xenograft tumor growth inhibition assay: MX-1. Conditions: for % TGD (tumor growth delay): QDx21, endpoint 1000 mm^3; for % TGI (tumor growth inhibition): QDx21, tumor volumes study day 27.
Experimental: The effect of example compounds to inhibit growth of human tumor xenografts implanted in mice was evaluated. Briefly, cells obtained from culture (MV4-11 and OPM-2) or tumor brie (MX-1) were suspended in cell culture medium (MEM, Suspension, no Calcium, no Glutamine, Life Technologies Corporation) containing Matrigel (phenol red free, Becton Dickinson Biosciences Discovery Labware) and inoculated subcutaneously (approximately 5 million per site) into the right hind flank of SCID-beige (MV4-11 and OPM-2) or SCID (MX-1) female mice (Charles Rivers Labs) on study day 0.
Tumors were measured with a pair of calipers twice a week starting at the time of size match and tumor volumes were calculated according to the formula V=L×W^2/2 (V: volume, mm^3; L: length, mm. W: width, mm). Tumor volume was measured throughout the treatment period or until the mean tumor volume in each group reached an endpoint of >1000 mm^3.
The mark [6] stands for this setting: TR-FRET assay protocol (A-G, compound concentration range).
Setting [7] is: TR-FRET assay protocol (D, E or G) per compound.

By Ki is commonly meant the equilibrium dissociation constant of an inhibitor or competing ligand from its target.

Molecules are shown by their SMILES. Where two headings read alike, the source gives them in different places. Marks after values point to notes of the source that are not given here.

Regarding `Cn1cc(-c2cc(NS(C)(=O)=O)ccc2Oc2ccccc2Cl)ccc1=O` [Example 235, N-[4-(2-chlorophenoxy)-3-(1-methyl-6-oxo-1,6-dihydropyridin-3-yl)phenyl]methanesulfonamide], the “Inhibition of LPS induced IL-6 production, % inhibition” value (from here on “Inhibition … % inhibition”) in experiment [1] (30 mg/kg oral) is 58.7 @ 30 mg/kg %. For the same molecule, the EC50 in experiment [2] (72 h incubation) is 238 nM. Besides, the Ki in experiment [3] (setting [6]) is 47.6 nM; in experiment [4] (setting [6]), 17 nM.
Regarding `CCS(=O)(=O)Nc1ccc(Oc2ccc(F)cc2F)c(-c2ccc(=O)n(C)c2)c1` [Example 241, N-[4-(2,4-difluorophenoxy)-3-(1-methyl-6-oxo-1,6-dihydropyridin-3-yl)phenyl]ethanesulfonamide], in experiment [1] (3 mg/kg oral), the “Inhibition … % inhibition” value is on record as 73.9 @ 3 mg/kg %. In experiment [2] (72 h incubation), the EC50 stood at 181 nM. Also, the figures for the Ki in experiment [3] (setting [6]) and in experiment [4] (setting [6]) were 34.6 nM and 27.1 nM, respectively.
For the molecule `Cc1cc(Oc2ccccc2)c(-c2ccc(=O)n(C)c2)cc1NS(C)(=O)=O` [Example 257, N-[2-methyl-5-(1-methyl-6-oxo-1,6-dihydropyridin-3-yl)-4-phenoxyphenyl]methanesulfonamide], the “Inhibition … % inhibition” value in experiment [1] (30 mg/kg oral) was 49.7 @ 30 mg/kg %. Also, the EC50 in experiment [2] (72 h incubation) is 173 nM. For the same molecule, the inhibition constant Ki in experiment [3] (setting [6]) is 18.1 nM; in experiment [4] (setting [6]), 31.6 nM.
Regarding `CCOc1cc(=O)n(C)cc1-c1cc(NS(=O)(=O)CC)ccc1Oc1ccc(F)cc1F` [Example 285, N-[4-(2,4-difluorophenoxy)-3-(4-ethoxy-1-methyl-6-oxo-1,6-dihydropyridin-3-yl)phenyl]ethanesulfonamide], in experiment [1] (3 mg/kg oral), the “Inhibition … % inhibition” value was 84.0 @ 3 mg/kg %. Besides, in experiment [5] (3 mg/kg/day PO), the “% TGD (tumor growth delay)” value is 140^d** % and the “% TGI (tumor growth inhibition)” value is 84^d*** %.
Consider `CCCOc1cc(=O)n(C)cc1-c1cc(NS(=O)(=O)CC)ccc1Oc1ccc(F)cc1F` [Example 292, N-[4-(2,4-difluorophenoxy)-3-(1-methyl-6-oxo-4-propoxy-1,6-dihydropyridin-3-yl)phenyl]ethanesulfonamide], for which the “Inhibition … % inhibition” value in experiment [1] (3 mg/kg oral) is recorded as 58.0 @ 3 mg/kg %. Besides, the EC50 in experiment [2] (72 h incubation) worked out at 45 nM. For the same molecule, the inhibition constant (Ki) was 4.97 nM in experiment [3] (setting [6]) and 1.73 nM in experiment [4] (setting [6]).
Take `CCS(=O)(=O)Nc1ccc(Oc2ccc(F)cc2F)c(-c2cn(C)c(=O)cc2OCC(F)(F)F)c1` [Example 293, N-{4-(2,4-difluorophenoxy)-3-[1-methyl-6-oxo-4-(2,2,2-trifluoroethoxy)-1,6-dihydropyridin-3-yl]phenyl}ethanesulfonamide]: the “Inhibition … % inhibition” value in experiment [1] (3 mg/kg oral) was 71.0 @ 3 mg/kg %. The EC50 in experiment [2] (72 h incubation) worked out at 115 nM. The values for the inhibitory constant (Ki) in experiment [3] (setting [6]) and in experiment [4] (setting [6]) were 37.1 nM and 5.99 nM, respectively. Also, the “% TGD (tumor growth delay)” value is on record as 11% in experiment [5] (1 mg/kg/day PO) and 42% in experiment [5] (3 mg/kg/day PO). The “% TGI (tumor growth inhibition)” value in experiment [5] (1 mg/kg/day PO) was 6%; in experiment [5] (3 mg/kg/day PO), 56* %.
`CCS(=O)(=O)Nc1ccc(Oc2ccc(F)cc2F)c(-c2cn(C)c(=O)cc2OCC2(C)CC2(F)F)c1` (centres unmarked) [Example 335, N-[3-{4-[(2,2-difluoro-1-methylcyclopropyl)methoxy]-1-methyl-6-oxo-1,6-dihydropyridin-3-yl}-4-(2,4-difluorophenoxy)phenyl]ethanesulfonamide]: the “Inhibition … % inhibition” value in experiment [1] (3 mg/kg oral) was 50.9 @ 3 mg/kg %. The EC50 in experiment [2] (72 h incubation) came out at 239 nM. Further, the Ki was 95.3 nM in experiment [3] (setting [6]) and 15.1 nM in experiment [4] (setting [6]).
Take `CCS(=O)(=O)Nc1ccc(Oc2ccc(F)cc2F)c(-c2cn(C)c(=O)cc2-n2cccn2)c1` [Example 346, N-{4-(2,4-difluorophenoxy)-3-[1-methyl-6-oxo-4-(1H-pyrazol-1-yl)-1,6-dihydropyridin-3-yl]phenyl}ethanesulfonamide]: in experiment [1] (3 mg/kg oral), the “Inhibition … % inhibition” value is 48.6 @ 3 mg/kg %. For the same molecule, the EC50 in experiment [2] (72 h incubation) turned out to be 264 nM. The inhibitory constant (Ki) in experiment [3] (setting [6]) is 41.5 nM; in experiment [4] (setting [6]) it was 13 nM.
The matching figures for `CCOc1cc(=O)n(C)cc1-c1cc(NS(=O)(=O)CC)ccc1Oc1ccc(C#N)cc1` [Example 358, N-[4-(4-cyanophenoxy)-3-(4-ethoxy-1-methyl-6-oxo-1,6-dihydropyridin-3-yl)phenyl]ethanesulfonamide]: 60.5 @ 3 mg/kg %, 52.6 nM, 7.8 nM and 7.61 nM.
With `CCNc1cc(=O)n(C)cc1-c1cc(NS(=O)(=O)CC)ccc1Oc1ccc(F)cc1F` [Example 363, N-{4-(2,4-difluorophenoxy)-3-[4-(ethylamino)-1-methyl-6-oxo-1,6-dihydropyridin-3-yl]phenyl}ethanesulfonamide], the “Inhibition … % inhibition” value in experiment [1] (3 mg/kg oral) is 42.7 @ 3 mg/kg %. Moreover, the EC50 in experiment [2] (72 h incubation) is 29.6 nM. The inhibition constant (Ki) in experiment [3] (setting [6]) is 4.94 nM; in experiment [4] (setting [6]) it was 1.53 nM.
In the same order, the values of `CCS(=O)(=O)Nc1ccc(Oc2ccc(F)cc2F)c(-c2cn(C)c(=O)cc2OC2CCC2)c1` [Example 367, N-{3-[4-(cyclobutyloxy)-1-methyl-6-oxo-1,6-dihydropyridin-3-yl]-4-(2,4-difluorophenoxy)phenyl}ethanesulfonamide] are 80.0 @ 3 mg/kg %, 18.9 nM, 2.11 nM and 0.528 nM.
As to `CCOc1cc(=O)n(C)cc1-c1cc(S(=O)(=O)CC)ccc1OCC1CC1(F)F` (centres unmarked) [Example 368, 5-{2-[(2,2-difluorocyclopropyl)methoxy]-5-(ethylsulfonyl)phenyl}-4-ethoxy-1-methylpyridin-2(1H)-one], in experiment [1] (3 mg/kg oral), the “Inhibition … % inhibition” value is given as 72.4 @ 3 mg/kg %. Besides, the EC50 in experiment [2] (72 h incubation) stood at 96.2 nM. Further, the Ki is 19.6 nM in experiment [3] (setting [6]) and 28.6 nM in experiment [4] (setting [6]).
In the same order, the values of `CCOc1cc(=O)n(C)cc1-c1cc(S(=O)(=O)C(C)C)ccc1Oc1ccc(F)cc1F` [Example 369, 5-[2-(2,4-difluorophenoxy)-5-(propan-2-ylsulfonyl)phenyl]-4-ethoxy-1-methylpyridin-2(1H)-one] are 38.0 @ 3 mg/kg %, 28.1 nM, 5.29 nM and 2.42 nM.
For the molecule `CCOc1cc(=O)n(C)cc1-c1cc(S(=O)(=O)C2CC2)ccc1Oc1ccc(F)cc1F` [Example 371, 5-[5-(cyclopropylsulfonyl)-2-(2,4-difluorophenoxy)phenyl]-4-ethoxy-1-methylpyridin-2(1H)-one], in experiment [1] (3 mg/kg oral), the “Inhibition … % inhibition” value is listed as 57.6 @ 3 mg/kg %. For the same molecule, in experiment [2] (72 h incubation), the EC50 was found to be 40.9 nM. Also, the Ki in experiment [3] (setting [6]) was 8.73 nM; in experiment [4] (setting [6]), 2.29 nM.
Turning to `CCOc1cc(=O)n(C)cc1-c1cc(S(=O)(=O)CC)ccc1Oc1ccc(F)cc1F` [Example 375, 5-[2-(2,4-difluorophenoxy)-5-(ethylsulfonyl)phenyl]-4-ethoxy-1-methylpyridin-2(1H)-one], the “Inhibition … % inhibition” value in experiment [1] (3 mg/kg oral) was 84.4 @ 3 mg/kg %. Further, the EC50 in experiment [2] (72 hours with compound) was found to be 40.2 nM. Moreover, the Ki in experiment [3] (setting [7]) was 12.9 nM; in experiment [4] (setting [7]) it was 3.22 nM.
Consider `CCOc1cc(=O)n(C)cc1-c1cc(NS(=O)(=O)CC)ccc1Oc1ccc(OC(F)(F)F)cc1` [Example 387, N-{3-(4-ethoxy-1-methyl-6-oxo-1,6-dihydropyridin-3-yl)-4-[4-(trifluoromethoxy)phenoxy]phenyl}ethanesulfonamide], for which the “Inhibition … % inhibition” value in experiment [1] (3 mg/kg oral) is listed as 54.3 @ 3 mg/kg %. Further, the EC50 in experiment [2] (72 hours with compound) was 61.8 nM. The inhibition constant (Ki) in experiment [3] (setting [7]) was 69.1 nM; in experiment [4] (setting [7]), 7.87 nM.
As to `CCOc1cc(=O)n(C)cc1-c1cc(NS(=O)(=O)CC)ccc1Oc1ccc(Cl)cc1` [Example 400, N-[4-(4-chlorophenoxy)-3-(4-ethoxy-1-methyl-6-oxo-1,6-dihydropyridin-3-yl)phenyl]ethanesulfonamide], the “Inhibition … % inhibition” value in experiment [1] (3 mg/kg oral) is given as 66.4 @ 3 mg/kg %. Further, in experiment [2] (72 hours with compound), the EC50 came out at 18.1 nM. Further, the results for the Ki in experiment [3] (setting [7]) and in experiment [4] (setting [7]) were 7.21 nM and 1.81 nM, respectively.
